Test results taken from article PMC10041525, “New Dual Inhibitors of Bacterial Topoisomerases with Broad-Spectrum Antibacterial Activity and In Vivo Efficacy against Vancomycin-Intermediate Staphylococcus aureus” (Journal of Medicinal Chemistry, 2023).
Converted amounts (≈) assume the structure as drawn. Where two headings read alike, the source gives them in different places.

How the values were obtained:
E. coli ATCC 25922 = assay: IHMA QC MIC; format: cell-based; conditions: QC strain E. coli ATCC 25922, test date 2021-11-26
[1] = system: 100 A. baumannii strains (50 MDR, 50 non-MDR); assay: MIC broth microdilution at IHMA Europe, panel of 100 strains; format: cell-based; conditions: Acinetobacter baumannii, read-out: MIC

Question: With Cc1[nH]c(C(=O)Nc2nc3c(N4[C@@H]5CC[C@H]4COC5)cc(C(=O)O)cc3s2)c(Cl)c1Cl [7h, 4-((1R,5S)-3-Oxa-8-azabicyclo[3.2.1]octan-8-yl)-2-(3,4-dichloro-5-methyl-1H-pyrrole-2-carboxamido)benzo[d]thiazole-6-carboxylic Acid] as the molecule, how does the MIC (E. coli ATCC 25922) read?
Answer: 4 µg/mL (≈ 8.31 µM)

Question: What about the MIC ([1]; A. baumannii IHMA 1769393, Lithuania 2018, Non-MDR) of the same molecule?
Answer: 2 µg/mL (≈ 4.15 µM)

Question: What about the MIC ([1]; A. baumannii IHMA 1769782, Israel 2018, MDR) of the same molecule?
Answer: 2 µg/mL (≈ 4.15 µM)

Question: What about the MIC ([1]; A. baumannii IHMA 1769910, Israel 2018, Non-MDR) of the same molecule?
Answer: 4 µg/mL (≈ 8.31 µM)

Question: And the MIC ([1]; A. baumannii IHMA 1790317, Czech Republic 2018, Non-MDR)?
Answer: 2 µg/mL (≈ 4.15 µM)

Question: What about the MIC ([1]; A. baumannii IHMA 1790916, Romania 2018, Non-MDR) of the same molecule?
Answer: 1 µg/mL (≈ 2.08 µM)

Question: And the MIC ([1]; A. baumannii IHMA 1791877, Israel 2018, MDR)?
Answer: 2 µg/mL (≈ 4.15 µM)

Question: And the MIC ([1]; A. baumannii IHMA 1792961, Jordan 2018, MDR)?
Answer: 2 µg/mL (≈ 4.15 µM)

Question: And the MIC ([1]; A. baumannii IHMA 1795669, Tunisia 2018, Non-MDR)?
Answer: 1 µg/mL (≈ 2.08 µM)

Question: What about the MIC ([1]; A. baumannii IHMA 1814276, Lebanon 2018, MDR) of the same molecule?
Answer: 2 µg/mL (≈ 4.15 µM)

Question: And the MIC ([1]; A. baumannii IHMA 1815198, Kuwait 2018, MDR)?
Answer: 2 µg/mL (≈ 4.15 µM)

Question: And the MIC ([1]; A. baumannii IHMA 1815856, Israel 2018, MDR)?
Answer: 2 µg/mL (≈ 4.15 µM)

Question: And the MIC ([1]; A. baumannii IHMA 1821468, South Africa 2018, Non-MDR)?
Answer: 2 µg/mL (≈ 4.15 µM)

Question: What about the MIC ([1]; A. baumannii IHMA 1829500, Georgia 2018, Non-MDR) of the same molecule?
Answer: 2 µg/mL (≈ 4.15 µM)

Question: What about the MIC ([1]; A. baumannii IHMA 1830924, United Kingdom 2018, Non-MDR) of the same molecule?
Answer: 4 µg/mL (≈ 8.31 µM)

Question: And the MIC ([1]; A. baumannii IHMA 1849819, Kuwait 2018, MDR)?
Answer: 4 µg/mL (≈ 8.31 µM)

Question: And the MIC ([1]; A. baumannii IHMA 1849829, Kuwait 2018, Non-MDR)?
Answer: 4 µg/mL (≈ 8.31 µM)

Question: What about the MIC ([1]; A. baumannii IHMA 1857118, Slovenia 2018, Non-MDR) of the same molecule?
Answer: 4 µg/mL (≈ 8.31 µM)

Question: And the MIC ([1]; A. baumannii IHMA 1863631, France 2018, Non-MDR)?
Answer: 2 µg/mL (≈ 4.15 µM)

Question: And the MIC ([1]; A. baumannii IHMA 1870054, United States 2018, Non-MDR)?
Answer: 2 µg/mL (≈ 4.15 µM)

Question: And the MIC ([1]; A. baumannii IHMA 1884428, Italy 2018, Non-MDR)?
Answer: 4 µg/mL (≈ 8.31 µM)

Question: What about the MIC ([1]; A. baumannii IHMA 1884990, Germany 2018, Non-MDR) of the same molecule?
Answer: 1 µg/mL (≈ 2.08 µM)

Question: What about the MIC ([1]; A. baumannii IHMA 1900538, Turkey 2018, Non-MDR) of the same molecule?
Answer: 4 µg/mL (≈ 8.31 µM)

Question: What about the MIC ([1]; A. baumannii IHMA 1913773, Kenya 2018, Non-MDR) of the same molecule?
Answer: 2 µg/mL (≈ 4.15 µM)

Question: What about the MIC ([1]; A. baumannii IHMA 1926285, Qatar 2018, Non-MDR) of the same molecule?
Answer: 2 µg/mL (≈ 4.15 µM)

Question: And the MIC ([1]; A. baumannii IHMA 1926288, Qatar 2018, MDR)?
Answer: 1 µg/mL (≈ 2.08 µM)

Question: And the MIC ([1]; A. baumannii IHMA 1957343, Portugal 2019, Non-MDR)?
Answer: 4 µg/mL (≈ 8.31 µM)

Question: And the MIC ([1]; A. baumannii IHMA 1963732, Turkey 2019, MDR)?
Answer: 2 µg/mL (≈ 4.15 µM)

Question: And the MIC ([1]; A. baumannii IHMA 1967860, Spain 2019, Non-MDR)?
Answer: 8 µg/mL (≈ 16.6 µM)

Question: And the MIC ([1]; A. baumannii IHMA 1971673, Latvia 2019, MDR)?
Answer: 2 µg/mL (≈ 4.15 µM)

Question: What about the MIC ([1]; A. baumannii IHMA 1975075, Israel 2019, Non-MDR) of the same molecule?
Answer: 2 µg/mL (≈ 4.15 µM)

Question: What about the MIC ([1]; A. baumannii IHMA 1977077, Kuwait 2019, Non-MDR) of the same molecule?
Answer: 4 µg/mL (≈ 8.31 µM)

Question: What about the MIC ([1]; A. baumannii IHMA 1983151, Greece 2019, MDR) of the same molecule?
Answer: 2 µg/mL (≈ 4.15 µM)

Question: What about the MIC ([1]; A. baumannii IHMA 1984665, Lithuania 2019, MDR) of the same molecule?
Answer: 2 µg/mL (≈ 4.15 µM)

Question: What about the MIC ([1]; A. baumannii IHMA 1986678, Turkey 2019, Non-MDR) of the same molecule?
Answer: 4 µg/mL (≈ 8.31 µM)

Question: And the MIC ([1]; A. baumannii IHMA 1986738, Turkey 2019, MDR)?
Answer: 2 µg/mL (≈ 4.15 µM)

Question: What about the MIC ([1]; A. baumannii IHMA 1987162, Croatia 2019, MDR) of the same molecule?
Answer: 2 µg/mL (≈ 4.15 µM)

Question: And the MIC ([1]; A. baumannii IHMA 1993615, Turkey 2019, MDR)?
Answer: 1 µg/mL (≈ 2.08 µM)

Question: And the MIC ([1]; A. baumannii IHMA 1994284, Italy 2019, MDR)?
Answer: 2 µg/mL (≈ 4.15 µM)

Question: What about the MIC ([1]; A. baumannii IHMA 1995161, Czech Republic 2019, Non-MDR) of the same molecule?
Answer: 2 µg/mL (≈ 4.15 µM)

Question: What about the MIC ([1]; A. baumannii IHMA 1997936, Morocco 2019, Non-MDR) of the same molecule?
Answer: 2 µg/mL (≈ 4.15 µM)

Question: What about the MIC ([1]; A. baumannii IHMA 1999178, Belgium 2019, Non-MDR) of the same molecule?
Answer: 2 µg/mL (≈ 4.15 µM)

Question: And the MIC ([1]; A. baumannii IHMA 2003279, Turkey 2019, MDR)?
Answer: 4 µg/mL (≈ 8.31 µM)

Question: What about the MIC ([1]; A. baumannii IHMA 2014367, Jordan 2019, Non-MDR) of the same molecule?
Answer: 1 µg/mL (≈ 2.08 µM)

Question: What about the MIC ([1]; A. baumannii IHMA 2014931, South Africa 2019, Non-MDR) of the same molecule?
Answer: 4 µg/mL (≈ 8.31 µM)

Question: What about the MIC ([1]; A. baumannii IHMA 2019315, Romania 2019, Non-MDR) of the same molecule?
Answer: 4 µg/mL (≈ 8.31 µM)

Question: What about the MIC ([1]; A. baumannii IHMA 2020360, Croatia 2019, MDR) of the same molecule?
Answer: 2 µg/mL (≈ 4.15 µM)

Question: What about the MIC ([1]; A. baumannii IHMA 2031511, Greece 2019, Non-MDR) of the same molecule?
Answer: 1 µg/mL (≈ 2.08 µM)

Question: What about the MIC ([1]; A. baumannii IHMA 2031524, Greece 2019, MDR) of the same molecule?
Answer: 2 µg/mL (≈ 4.15 µM)

Question: And the MIC ([1]; A. baumannii IHMA 2034657, Tunisia 2019, Non-MDR)?
Answer: 4 µg/mL (≈ 8.31 µM)

Question: And the MIC ([1]; A. baumannii IHMA 2035089, Serbia 2019, MDR)?
Answer: 2 µg/mL (≈ 4.15 µM)

Question: What about the MIC ([1]; A. baumannii IHMA 2035134, Serbia 2019, Non-MDR) of the same molecule?
Answer: 2 µg/mL (≈ 4.15 µM)

Question: What about the MIC ([1]; A. baumannii IHMA 2038976, Hungary 2019, MDR) of the same molecule?
Answer: 2 µg/mL (≈ 4.15 µM)

Question: And the MIC ([1]; A. baumannii IHMA 2051503, Serbia 2019, MDR)?
Answer: 2 µg/mL (≈ 4.15 µM)

Question: What about the MIC ([1]; A. baumannii IHMA 2058329, Slovenia 2019, Non-MDR) of the same molecule?
Answer: 4 µg/mL (≈ 8.31 µM)

Question: And the MIC ([1]; A. baumannii IHMA 2065587, France 2019, Non-MDR)?
Answer: 1 µg/mL (≈ 2.08 µM)

Question: What about the MIC ([1]; A. baumannii IHMA 2099294, United Kingdom 2019, Non-MDR) of the same molecule?
Answer: 2 µg/mL (≈ 4.15 µM)

Question: And the MIC ([1]; A. baumannii IHMA 2129256, Qatar 2019, Non-MDR)?
Answer: 4 µg/mL (≈ 8.31 µM)

Question: What about the MIC ([1]; A. baumannii IHMA 2154584, Israel 2020, MDR) of the same molecule?
Answer: 2 µg/mL (≈ 4.15 µM)

Question: And the MIC ([1]; A. baumannii IHMA 2155340, Kenya 2020, MDR)?
Answer: 2 µg/mL (≈ 4.15 µM)

Question: What about the MIC ([1]; A. baumannii IHMA 2156634, Turkey 2020, MDR) of the same molecule?
Answer: 2 µg/mL (≈ 4.15 µM)

Question: What about the MIC ([1]; A. baumannii IHMA 2156709, Turkey 2020, MDR) of the same molecule?
Answer: 2 µg/mL (≈ 4.15 µM)

Question: And the MIC ([1]; A. baumannii IHMA 2157614, Australia 2020, Non-MDR)?
Answer: 4 µg/mL (≈ 8.31 µM)

Question: And the MIC ([1]; A. baumannii IHMA 2177232, Lithuania 2020, MDR)?
Answer: 4 µg/mL (≈ 8.31 µM)

Question: What about the MIC ([1]; A. baumannii IHMA 2177489, Lithuania 2020, MDR) of the same molecule?
Answer: 2 µg/mL (≈ 4.15 µM)

Question: What about the MIC ([1]; A. baumannii IHMA 2178574, Ukraine 2020, Non-MDR) of the same molecule?
Answer: 4 µg/mL (≈ 8.31 µM)

Question: And the MIC ([1]; A. baumannii IHMA 2180134, Malaysia 2020, Non-MDR)?
Answer: 2 µg/mL (≈ 4.15 µM)

Question: And the MIC ([1]; A. baumannii IHMA 2180142, Malaysia 2020, MDR)?
Answer: 2 µg/mL (≈ 4.15 µM)

Question: What about the MIC ([1]; A. baumannii IHMA 2181370, Morocco 2020, MDR) of the same molecule?
Answer: 2 µg/mL (≈ 4.15 µM)

Question: And the MIC ([1]; A. baumannii IHMA 2183729, Argentina 2020, MDR)?
Answer: 4 µg/mL (≈ 8.31 µM)

Question: And the MIC ([1]; A. baumannii IHMA 2183849, Argentina 2020, Non-MDR)?
Answer: 2 µg/mL (≈ 4.15 µM)

Question: What about the MIC ([1]; A. baumannii IHMA 2184382, Japan 2020, Non-MDR) of the same molecule?
Answer: 2 µg/mL (≈ 4.15 µM)

Question: What about the MIC ([1]; A. baumannii IHMA 2193375, Venezuela 2020, MDR) of the same molecule?
Answer: 2 µg/mL (≈ 4.15 µM)
